Source: US20240294499A1, “TARGETED PROTEIN DEGRADATION USING BIFUNCTIONAL COMPOUNDS THAT BIND UBIQUITIN LIGASE AND TARGET MCL-1 PROTEIN” (Captor Therapeutics S.A., priority 2021, published 2024)

Columns and labels:
ARH-77 cells = test: Cell viability assay (CellTiter-Glo), ARH-77; format: cell-based; conditions: Homo sapiens, ARH-77, 24 hours incubation, 1% FBS, read-out: Average pIC50 by molecule ARH-77 (converted)
From the text: (§1) The effect of various compounds of the invention on the viability of OPM-2, MV-4-11 and ARH-77 cell lines was investigated, using the CTG protocol described below.
(§2) OPM-2 and MV-4-11 cell lines are derived from multiple myeloma and acute myeloid leukaemia, respectively. Both cell lines are described in the literature as MCL-1 dependent lines, as opposed to lymphoblast-like ARH-77 cell line, which is described as independent of MCL-1 (Tron A E et al. Nat Commun. 2018; 9: 5341; Caenepeel S et al. Cancer Discov. 2018 December; 8(12):1582-1597).
(§3) Cells (OPM-2, MV-4-11 or ARH-77) were seeded on […] in a growth medium with FBS reduced to 1%. Next, compound stocks were pre-diluted in DMSO and added directly to the cells growth medium (final DMSO concentration: 0.5%). Compound concentrations used in this assay: 1/3 dilutions starting at 30 uM (9 to 12 points).
(§4) After 24 hours of incubation, cell viability was evaluated using CellTiter-Glo Luminescent Cell Viability Assay (Promega, cat #G7572). Luminescence signal was measured using a CLARIOstar Plus Multi-Mode Microplate Reader (574-590 nm).
(§5) Results were normalized to DMSO control.

MV-4-11 cells = test: Cell viability assay (CellTiter-Glo), MV-4-11; format: cell-based; conditions: Homo sapiens, MV4-11, 24 hours incubation, 1% FBS, read-out: Average pIC50 by molecule MV-4-11 (converted)
From the text: as §1, §2, §3, §4, §5

[1] = target: [MCL-1]-[compound of formula (I)]-[CRBN/DDB1] complex (Homo sapiens, UniProt Q07820+Q96SW2); test: AlphaLISA dose response ternary complex formation assay; format: binding; conditions: read-out: AlphaLISA dose response Average pEC50 by molecule (converted)
Procedure: The effect of the bifunctional compounds of the invention on the formation of a ternary complex composed of [MCL-1]-[compound of formula (I)]-[CRBN/DDB1] was investigated with two methods: AlphaLISA dose response assay or HTRF ternary complex assay.
Two types of protein solution were prepared: • 40 nM biotinylated hMCL-1, 40 μg/ml AlphaScreen Streptavidin-coated Donor Beads in PBS buffer with 0.1% Tween-20 and 1 mM DTT, • 200 nM 6×His-CRBN/Strep-DDB1, 40 μg/ml AlphaLISA Anti-6×His Acceptor beads in PBS buffer with 0.1% Tween-20 and 1 mM DTT.
The prepared solutions were incubated at room temperature for 45 min and then the solution containing the donor beads was mixed with the solution containing the acceptor beads.
The tested compounds were dispensed onto a white 384-well AlphaPlate 384 SW. DMSO was backfilled to all wells, resulting in a final DMSO content of 2%. Wells containing only DMSO served as background. Next, 10 μl of solution with donor and acceptor beads was added to the wells.
The plate was sealed with transparent film and shaken using a VibroTurbulator for 60 see at room temperature, level 3. The plate was then spun down shortly (10 s, 1000 rcf, room temperature) and incubated at 25° C. for 30 min.
The read-out was performed with PerkinElmer Enspire Multimode Plate Reader (method for AlphaLISA 384-well low volume, Filterset: λexc=680 nm, λem=615 nm).
The results were analyzed as follows: • 1) an average of luminescence for background signal was calculated and used as a negative control; • 2) average of the maximum measured luminescence for 233 was calculated and used as an internal positive control; • 3) raw luminescence values were normalized against positive and negative controls; • 4) concentration points above the hook point were excluded; • 5) EC50 and pEC50 values were determined.

[MCL-1]-[compound of formula (I)]-[CRBN/DDB1] complex, sequence (Q07820 whole entry): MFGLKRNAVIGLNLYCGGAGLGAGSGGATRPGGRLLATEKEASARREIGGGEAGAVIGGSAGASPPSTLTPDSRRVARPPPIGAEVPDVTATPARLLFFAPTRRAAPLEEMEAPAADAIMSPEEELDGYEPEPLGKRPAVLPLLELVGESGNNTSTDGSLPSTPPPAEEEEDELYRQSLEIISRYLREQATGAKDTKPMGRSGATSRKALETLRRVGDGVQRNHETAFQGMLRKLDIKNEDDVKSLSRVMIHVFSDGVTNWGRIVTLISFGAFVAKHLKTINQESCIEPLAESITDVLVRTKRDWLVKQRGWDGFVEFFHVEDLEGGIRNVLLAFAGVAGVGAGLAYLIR
[MCL-1]-[compound of formula (I)]-[CRBN/DDB1] complex, sequence (Q96SW2 whole entry): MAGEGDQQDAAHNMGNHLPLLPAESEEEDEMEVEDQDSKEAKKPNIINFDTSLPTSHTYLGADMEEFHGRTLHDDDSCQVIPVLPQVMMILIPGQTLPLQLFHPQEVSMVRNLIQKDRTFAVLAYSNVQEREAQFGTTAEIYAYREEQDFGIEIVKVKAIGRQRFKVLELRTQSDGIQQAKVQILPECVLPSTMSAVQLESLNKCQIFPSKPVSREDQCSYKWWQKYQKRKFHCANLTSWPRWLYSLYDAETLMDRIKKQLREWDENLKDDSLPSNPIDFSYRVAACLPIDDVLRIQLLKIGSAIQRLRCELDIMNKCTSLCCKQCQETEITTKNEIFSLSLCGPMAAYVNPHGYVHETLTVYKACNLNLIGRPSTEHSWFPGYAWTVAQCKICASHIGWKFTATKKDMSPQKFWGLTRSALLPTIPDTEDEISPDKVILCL
[MCL-1]-[compound of formula (I)]-[CRBN/DDB1] complex, sequence (Q16531 whole entry partner): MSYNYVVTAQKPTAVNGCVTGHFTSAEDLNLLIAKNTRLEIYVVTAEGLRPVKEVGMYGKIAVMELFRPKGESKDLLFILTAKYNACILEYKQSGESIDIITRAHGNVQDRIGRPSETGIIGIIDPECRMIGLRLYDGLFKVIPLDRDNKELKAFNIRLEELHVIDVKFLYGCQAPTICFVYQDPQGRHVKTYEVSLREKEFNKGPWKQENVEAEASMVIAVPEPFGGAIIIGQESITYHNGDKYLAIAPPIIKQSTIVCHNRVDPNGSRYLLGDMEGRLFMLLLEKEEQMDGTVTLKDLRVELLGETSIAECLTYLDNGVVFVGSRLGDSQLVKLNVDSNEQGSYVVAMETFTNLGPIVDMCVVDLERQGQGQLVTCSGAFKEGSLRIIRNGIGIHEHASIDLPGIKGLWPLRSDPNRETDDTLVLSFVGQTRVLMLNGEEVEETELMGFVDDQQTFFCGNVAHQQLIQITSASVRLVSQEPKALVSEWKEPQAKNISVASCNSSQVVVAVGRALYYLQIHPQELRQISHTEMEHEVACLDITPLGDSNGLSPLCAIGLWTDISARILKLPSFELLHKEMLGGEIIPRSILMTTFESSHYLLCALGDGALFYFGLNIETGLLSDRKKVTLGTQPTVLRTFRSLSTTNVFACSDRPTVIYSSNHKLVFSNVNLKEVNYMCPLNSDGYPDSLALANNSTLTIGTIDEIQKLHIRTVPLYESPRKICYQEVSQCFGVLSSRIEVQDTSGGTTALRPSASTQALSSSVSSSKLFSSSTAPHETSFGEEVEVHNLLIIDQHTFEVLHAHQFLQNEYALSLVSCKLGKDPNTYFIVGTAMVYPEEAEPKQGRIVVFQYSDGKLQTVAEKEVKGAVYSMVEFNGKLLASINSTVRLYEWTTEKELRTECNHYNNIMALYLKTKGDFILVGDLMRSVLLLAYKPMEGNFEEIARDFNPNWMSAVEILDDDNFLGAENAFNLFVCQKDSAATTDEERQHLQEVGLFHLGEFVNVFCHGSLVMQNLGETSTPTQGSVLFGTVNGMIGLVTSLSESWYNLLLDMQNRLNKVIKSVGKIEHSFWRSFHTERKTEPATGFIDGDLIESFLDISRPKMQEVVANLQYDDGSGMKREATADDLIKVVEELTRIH

SMILES	IC50 (MV-4-11 cells)	EC50 [1]	IC50 (ARH-77 cells)
Cc1nn(C)c(C)c1-c1c(Cl)ccc2c(CCCOc3cccc4cc(F)ccc34)c(C(=O)O)n(CCN3CCN(C(=O)[C@@H](C)Oc4cccc5c4C(=O)N([C@H]4CCC(=O)NC4=O)C5=O)CC3)c12 (single isomer, unassigned) [Compound 317]	≤ 31.6 nM	< 100 nM	> 3.16 µM
Cc1nn(C)c(C)c1-c1c(Cl)ccc2c(CCCOc3cccc4cc(F)ccc34)c(C(=O)O)n(CCN3CCN(C(=O)Cn4c(C)nc5c(C(=O)NC6CCC(=O)NC6=O)cc(Br)cc54)CC3)c12 (stereo not drawn) [Compound 273, 1-{2-[4-(2-{6-Bromo-4-[(2,6-dioxopiperidin-3-yl)carbamoyl]-2-methyl-1H-1,3-benzodiazol-1-yl}acetyl)piperazin-1-yl]ethyl}-6-chloro-3-{3-[(6-fluoronaphthalen-1-yl)oxy]propyl}-7-(1,3,5-trimethyl-1H-pyrazol-4-yl)-1H-indole-2-carboxylic acid]	≤ 316 nM	< 10 nM	> 10 µM
Cc1nn(C)c(C)c1-c1c(Cl)ccc2c(CCCOc3cccc4cc(F)ccc34)c(C(=O)O)n(CCN3CCN(C(=O)Cn4c(C)nc5c(C(=O)NC6CCC(=O)NC6=O)cc(Cl)cc54)CC3)c12 (stereo not drawn) [Compound 276, 6-Chloro-1-(2-(4-(2-(6-chloro-4-((2,6-dioxopiperidin-3-yl)carbamoyl)-2-methyl-1H-benzo[d]imidazol-1-yl)acetyl)piperazin-1-yl)ethyl)-3-(3-((6-fluoronaphthalen-1-yl)oxy)propyl)-7-(1,3,5-trimethyl-1H-pyrazol-4-yl)-1H-indole-2-carboxylic acid]	≤ 100 nM	< 100 nM	> 10 µM
Cc1nn(C)c(C)c1-c1c(Cl)ccc2c(CCCOc3cccc4cc(F)ccc34)c(C(=O)O)n(CCN3CCC4CN(C(=O)CNc5cccc6c5C(=O)N(C5CCC(=O)NC5=O)C6=O)CC43)c12 (stereo not drawn) [Compound 300, 6-Chloro-1-(2-(5-((2-(2,6-dioxopiperidin-3-yl)-1,3-dioxoisoindolin-4-yl)glycyl)hexahydropyrrolo[3,4-b]pyrrol-1(2H)-yl)ethyl)-3-(3-((6-fluoronaphthalen-1-yl)oxy)propyl)-7-(1,3,5-trimethyl-1H-pyrazol-4-yl)-1H-indole-2-carboxylic acid]	≤ 100 nM	< 10 nM	> 3.16 µM
Cc1cc(C(=O)NC2CCC(=O)NC2=O)c2nc(C)n(CC(=O)N3CCN(CCn4c(C(=O)O)c(CCCOc5cccc6cc(F)ccc56)c5ccc(Cl)c(-c6c(C)nn(C)c6C)c54)CC3)c2c1 (stereo not drawn) [Compound 274, 6-Chloro-1-(2-(4-(2-(4-((2,6-dioxopiperidin-3-yl)carbamoyl)-2,6-dimethyl-1H-benzo[d]imidazol-1-yl)acetyl)piperazin-1-yl)ethyl)-3-(3-((6-fluoronaphthalen-1-yl)oxy)propyl)-7-(1,3,5-trimethyl-1H-pyrazol-4-yl)-1H-indole-2-carboxylic acid]	≤ 100 nM	< 10 nM	> 10 µM
Cc1nn(C)c(C)c1-c1c(Cl)ccc2c(CCCOc3cccc4cc(F)ccc34)c(C(=O)O)n(CCN3CCC(CN4CCN(c5cc6c(cc5F)C(=O)N(C5CCC(=O)NC5=O)C6=O)CC4)CC3)c12 (stereo not drawn) [Compound 331, 6-Chloro-1-(2-(4-((4-(2-(2,6-dioxopiperidin-3-yl)-6-fluoro-1,3-dioxoisoindolin-5-yl)piperazin-1-yl)methyl)piperidin-1-yl)ethyl)-3-(3-((6-fluoronaphthalen-1-yl)oxy)propyl)-7-(1,3,5-trimethyl-1H-pyrazol-4-yl)-1H-indole-2-carboxylic acid]	≤ 316 nM	< 100 nM	> 10 µM
Cc1nn(C)c(C)c1-c1c(Cl)ccc2c(CCCOc3cccc4ccccc34)c(C(=O)O)n(CCN3CCN(C(=O)COc4cccc5c4CN(C4CCC(=O)NC4=O)C5=O)CC34CC4)c12 (stereo not drawn) [Compound 292, 6-Chloro-1-(2-(7-(2-((2-(2,6-dioxopiperidin-3-yl)-1-oxoisoindolin-4-yl)oxy)acetyl)-4,7-diazaspiro[2.5]octan-4-yl)ethyl)-3-(3-(naphthalen-1-yloxy)propyl)-7-(1,3,5-trimethyl-1H-pyrazol-4-yl)-1H-indole-2-carboxylic acid]	≤ 100 nM	< 10 nM	> 10 µM

Second part, led by results:

IC50 (MV-4-11 cells)	EC50 [1]	SMILES	IC50 (ARH-77 cells)
≤ 1000 nM	< 100 nM	Cc1nn(C)c(C)c1-c1c(Cl)ccc2c(CCCOc3cccc4cc(F)ccc34)c(C(=O)O)n(CCN3CCC(CN4CCN(c5cccc6c5C(=O)N(C5CCC(=O)NC5=O)C6=O)CC4)CC3)c12 (stereo not drawn) [Compound 332, 6-Chloro-1-(2-(4-((4-(2-(2,6-dioxopiperidin-3-yl)-1,3-dioxoisoindolin-4-yl)piperazin-1-yl)methyl)piperidin-1-yl)ethyl)-3-(3-((6-fluoronaphthalen-1-yl)oxy)propyl)-7-(1,3,5-trimethyl-1H-pyrazol-4-yl)-1H-indole-2-carboxylic acid]	> 31.6 µM
≤ 1000 nM	< 100 nM	COc1cc(OCCCc2c(C(=O)O)n(CCN3CCN(C(=O)COc4cccc5c4C(=O)N(C4CCC(=O)NC4=O)C5=O)CC3)c3c(-c4c(C)nn(C)c4C)c(Cl)ccc23)c2ccccc2c1 (stereo not drawn) [Compound 218, 6-chloro-1-(2-(4-(2-((2-(2,6-dioxopiperidin-3-yl)-1,3-dioxoisoindolin-4-yl)oxy)acetyl)piperazin-1-yl)ethyl)-3-(3-((3-methoxynaphthalen-1-yl)oxy)propyl)-7-(1,3,5-trimethyl-1H-pyrazol-4-yl)-1H-indole-2-carboxylic acid]	> 10 µM
≤ 100 nM	< 100 nM	COc1ccc(C(=O)NC2CCC(=O)NC2=O)c2nc(C)n(CC(=O)N3CCN(CCn4c(C(=O)O)c(CCCOc5cccc6cc(F)ccc56)c5ccc(Cl)c(-c6c(C)nn(C)c6C)c54)CC3)c12 (stereo not drawn) [Compound 272, 6-Chloro-1-(2-(4-(2-(4-((2,6-dioxopiperidin-3-yl)carbamoyl)-7-methoxy-2-methyl-1H-benzo[d]imidazol-1-yl)acetyl)piperazin-1-yl)ethyl)-3-(3-((6-fluoronaphthalen-1-yl)oxy)propyl)-7-(1,3,5-trimethyl-1H-pyrazol-4-yl)-1H-indole-2-carboxylic acid]	> 10 µM
≤ 31.6 nM	< 100 nM	Cc1nn(C)c(C)c1-c1c(Cl)ccc2c(CCCOc3cccc4cc(F)ccc34)c(C(=O)O)n(CCN3CCN(C(=O)[C@H](C)Oc4cccc5c4C(=O)N(C4CCC(=O)NC4=O)C5=O)CC3)c12 (mixture of isomers) [Compound 318, 6-Chloro-1-(2-(4-((2S)-2-((2-(2,6-dioxopiperidin-3-yl)-1,3-dioxoisoindolin-4-yl)oxy)propanoyl)piperazin-1-yl)ethyl)-3-(3-((6-fluoronaphthalen-1-yl)oxy)propyl)-7-(1,3,5-trimethyl-1H-pyrazol-4-yl)-1H-indole-2-carboxylic acid]	> 10 µM
≤ 316 nM	< 100 nM	Cc1nn(C)c(C)c1-c1c(Cl)ccc2c(CCCOc3cccc4ccccc34)c(C(=O)O)n(CC[N+]3([O-])CCN(C(=O)COc4cccc5c4CN(C4CCC(=O)NC4=O)C5=O)CC3)c12 (stereo not drawn) [Compound 224, 1-(2-(2-carboxy-6-chloro-3-(3-(naphthalen-1-yloxy)propyl)-7-(1,3,5-trimethyl-1H-pyrazol-4-yl)-1H-indol-1-yl)ethyl)-4-(2-((2-(2,6-dioxopiperidin-3-yl)-1-oxoisoindolin-4-yl)oxy)acetyl)piperazine 1-oxide]	> 10 µM
